In brackets after ≈: the same amount, converted by molar mass.
Legend:
[1] = system: XF-498 (human CNS); experiment: In vitro antitumor effect against human tumor cell lines, SRB assay; assay type: cell-based; settings: XF-498 cells, 48 hours with drug
Protocol: (§1) Experimental 1 : In vitro antitumor effect against human tumor cell lines.
(§2) A. Tumor cell lines : A549 (human non-small lung cell)
(§3) • SKOV-3 (human ovarian) • HCT-15 (human colon) • XF-498 (human CNS) • SKMEL-2 (human melanoma)
(§4) • a. Human solid tumor cell lines, A549(non-small lung cell), SKMEL-2(melanoma), HCT-15(colon), SKOV-3(ovarian) and XF-498(CNS) were cultured in 5% CO2 incubators using the RPMI 1640 media containing 10% FBS at 37°C, while with transfer-culturing successively once or twice per week. Cell cultures were dissolved in a solution of 0.25% trysin and 3 mmol CDTA PBS(-) to separate the cells sticked on the culture media. • b. 5× 10^3∼2× 10^4 cells were added into each well of 96-well plate and cultured in 5% CO2 incubator at 37°C for 24 hours. • c. Each sample drug was dissolved in a little DMSO and diluted with the used medium to a prescribed concentration for experiment, while the final concentration of DMSO was adjusted below 0.5%. • d. Medium of each well cultured for 24 hours as above b. was removed by aspiration. Each 200µl of drug samples prepared in c. was added into each well and the wells were cultured for 48 hours. Tz (time zero) plates were collected at the point of time drugs were added. • e. According to the SRB assay method, cell fixing with TCA, staining with 0.4% SRB solution, washing with 1% acetic acid and elution of dye with 10mmol Tris solution were carried out on Tz plates and culture-ended plates, and then, OD values were measured at 520 nm.
(§5) • a. Time zero(Tz) value was determined with measuring the SRB protein value at the point of time drugs were added. • b. Control value (C) was determined with the OD value of an well untreated with drug. • c. Drug-treated test value (T) was determined with the OD value of drug-treated well. • d. Effects of drugs were estimated with growth stimulation, net growth inhibition and net killing calculated from Tz, C and T values. • e. If T ≥ Tz, cellular response function was calculated by 100x(T-Tz)/(C-Tz), and, if T 〈 Tz, by 100× (T-Tz)/Tz.

[2] = system: A549 (human non-small lung cell); experiment: as above; assay type: cell-based; settings: A 549 cells, 48 hours with drug
Protocol: as §1, §2, §3, §4, §5

[3] = system: SKMEL-2 (human melanoma); experiment: as above; assay type: cell-based; settings: SK-MEL-2 cells, 48 hours with drug
Protocol: as §1, §2, §3, §4, §5

[4] = system: SKOV-3 (human ovarian); experiment: as above; assay type: cell-based; settings: SK-OV-3 cells, 48 hours with drug
Protocol: as §1, §2, §3, §4, §5

[5] = system: HCT-15 (human colon); experiment: as above; assay type: cell-based; settings: HCT 15 cells, 48 hours with drug
Protocol: as §1, §2, §3, §4, §5

[6] = biological target: Topoisomerase II; experiment: Inhibition of Topoisomerase II activity (DNA relaxation assay / DNA cleavage assay with supercoiled pBR322 DNA); assay type: biochemical; settings: Topo II, 30 minutes at 37°C, table does not say which of the two assays
Protocol: Experimental 3 : Inhibition effects against the Topoisomerase II activities
The present compounds were tested for inhibition of Topoisomerase II activity by means of the relaxation assay using supercoiled pBR322 DNA as the substrate. Topo II and a sample inhibitor were added to a reaction system (50mmol Tris-HCl, pH 7.5, 50mmol KCl, 20mmol MgCl2, 0.5mmol EDTA, 2mmol ATP, 60µg/mℓ BSA) containing supercoiled pBR322 DNA and reacted for 30 minutes at 37°C. Then, a quarter by volume of Stop buffer (5% SDS, 50mmol EDTA, 30% glycerol, 0.1mg/mℓ xylene cyanol, 0.1mg/mℓ BPB) was added to the reaction system to stop the reaction. The resulting product went through electrophoresis on 0.7% agarose gel and was stained by ethidium bromide solution. Mobility of DNA was measured under ultraviolet rays.
Topo II and a sample inhibitor were added to cleavage buffer (30mmol Tris-HCl, pH 7.5, 60mmol KCl, 10mmol MgCl2, 15mmol β -mercaptoethanol, 30µg/mℓ BSA) containing supercoiled pBR322 DNA and allowed to react for 30 minutes at 37°C. Then, […] by 1% was added to the reaction system to stop the reaction. Then, proteinase K was added thereto up to the concentration of 50 µg/mℓ and allowed to react for 30 minutes at 56°C. The reaction product was treated with phenol/chloroform to purify DNA, and the obtained DNA was loaded on agarose gel electrophoresis, transferred to nitrocellulose membrane and hybridized with probe DNA labelled with radioisotope. Then, the nitrocellulose membrane was covered with an X-ray film and exposed to be sensitized and developed, whereby the degree of cleavage of DNA was measured.

[7] = system: ICR mice; experiment: Acute toxicity test (LD50), Litchfield-Wilcoxon method; assay type: in vivo; settings: i.p., ICR mice (male), observed during 14 days
[8] = system: P388 (mouse lymphoid neoplasma cell); experiment: In vitro antitumor effect against animal leukemia cells, dye exclusion assay (trypan blue); assay type: cell-based; settings: 48 hours, dye exclusion test using trypan blue, read-out: IC50 (concentration showing 50 % cell growth inhibition)
Excerpt: Experimental 2 : In vitro antitumor effects against animal leukemia cells.
• Tumor cell lines : P388 (mouse lymphoid neoplasma cell)
B. Method : Dye Exclusion Assay.

[9] = Acute toxicity test (LD50), Litchfield-Wilcoxon method; assay type: in vivo; settings: mouse, in vivo, ICR mice (male), observed during 14 days

Row | Compound | IC50 [6] | IC50 [8] | ED50 [1] | ED50 [2] | ED50 [3] | ED50 [4] | ED50 [5] | also measured
1 | Cc1cc(C)cc(NC(=O)OCc2cc(N)cc(Nc3c4ccccc4nc4ccccc34)c2)c1 [Example 6, [3-(acridin-9-yl)amino-5-amino]benzyl N-(3,5-dimethylphenyl)carbamate] | 3 µg/mL (≈ 6.49 µM) | – | 0.37 µ g/ml | 0.72 µ g/ml | 0.40 µ g/ml | 0.36 µ g/ml | 0.33 µ g/ml | –
2 | Nc1cc(COC(=O)Nc2cc(F)cc(F)c2)cc(Nc2c3ccccc3nc3ccccc23)c1 [Example 12, [3-(acridin-9-yl)amino-5-amino]benzyl N-(3,5-difluorophenyl)carbamate] | 0.5 µg/mL (≈ 1.06 µM) | – | – | – | – | – | – | LD50 [7]: 150 mg/kg
3 | COc1cc(NC(=O)OCc2cc(N)cc(Nc3c4ccccc4nc4ccccc34)c2)cc(OC)c1OC [Example 4, [3-(acridin-9-yl)amino-5-amino]benzyl N-(3,4,5-trimethoxyphenyl)carbamate] | 5 µg/mL (≈ 9.53 µM) | – | 0.23 µ g/ml | 0.19 µ g/ml | 0.20 µ g/ml | 0.19 µ g/ml | 0.24 µ g/ml | –
4 | Nc1cc(COC(=O)Nc2ccccc2)cc(Nc2c3ccccc3nc3ccccc23)c1 [Example 1, [3-(acridin-9-yl)amino-5-amino]benzyl N-phenylcarbamate] | 1 µg/mL (≈ 2.3 µM) | – | 0.44 µ g/ml | 0.96 µ g/ml | 0.49 µ g/ml | 1.15 µ g/ml | 0.57 µ g/ml | –
5 | COc1cc(NC(=S)OCc2cc(N)cc(Nc3c4ccccc4nc4ccccc34)c2)cc(OC)c1OC [Example 19, [3-(acridin-9-yl)amino-5-amino]benzyl N-(3,4,5-trimethoxyphenyl)thiocarbamate] | 5 µg/mL (≈ 9.25 µM) | – | – | – | – | – | – | –
6 | C[C@H](N)C(=O)Nc1cc(CO)cc(Nc2c3ccccc3nc3ccccc23)c1 [Example 45, N-[3-(acridin-9-yl)amino-5-(hydroxymethyl)phenyl] (2S)-2-aminopropaneamide] | 0.5 µg/mL (≈ 1.29 µM) | 0.05 µg/mL (≈ 0.129 µM) | 0.88 µ g/ml | 0.01 µ g/ml | 0.25 µ g/ml | 0.21 µ g/ml | 0.86 µ g/ml | LD50 at 14 days ([9]; ip): 730 mg/kg; LD50 at 14 days ([9]; iv): 133 mg/kg
7 | N.N.[Cl][Pt][Cl] [Cisplatin, reference compound] | – | – | 0.77 µ g/ml | 0.81 µ g/ml | 0.71 µ g/ml | 0.71 µ g/ml | 3.03 µ g/ml | –
8 | COc1cc(NC(=O)OCc2cccc(Nc3c4ccccc4nc4ccccc34)c2)cc(OC)c1OC [Example 22, 3-(acridin-9-yl)aminobenzyl N-(3,4,5-trimethoxyphenyl)carbamate] | 5 µg/mL (≈ 9.81 µM) | – | – | – | – | – | – | –
9 | COc1cc(NC(=O)OCc2cccc(Nc3c4ccccc4nc4ccccc34)c2)cc(OC)c1 [Example 21, 3-(acridin-9-yl)aminobenzyl N-(3,5-dimethoxyphenyl)carbamate] | 3 µg/mL (≈ 6.26 µM) | – | – | – | – | – | – | –

Now from value to molecule, other results behind:

Row | IC50 [6] | IC50 [8] | Compound | ED50 [1] | ED50 [2] | ED50 [3] | ED50 [4] | ED50 [5] | also measured
10 | 5 µg/mL (≈ 13.5 µM) | – | CCCC=Nc1cc(CO)cc(Nc2c3ccccc3nc3ccccc23)c1 [Example 37, 3-(acridin-9-yl)amino-5-(butylideneamino)phenylmethanol] | 0.36 µ g/ml | 0.90 µ g/ml | 0.89 µ g/ml | 0.93 µ g/ml | 0.35 µ g/ml | –
11 | 3 µg/mL (≈ 8.44 µM) | – | CCC=Nc1cc(CO)cc(Nc2c3ccccc3nc3ccccc23)c1 [Example 36, 3-(acridin-9-yl)amino-5-(propylideneamino)phenylmethanol] | – | – | – | – | – | –
12 | 3 µg/mL (≈ 8.06 µM) | 0.1 µg/mL (≈ 0.269 µM) | NCC(=O)Nc1cc(CO)cc(Nc2c3ccccc3nc3ccccc23)c1 [Example 44, N-[3-(acridin-9-yl)amino-5-(hydroxymethyl)phenyl] aminoethaneamide] | – | – | – | – | – | –
13 | 5 µg/mL (≈ 14.6 µM) | – | CC=Nc1cc(CO)cc(Nc2c3ccccc3nc3ccccc23)c1 [Example 35, 3-(acridin-9-yl)amino-5-(ethylideneamino)phenylmethanol] | – | – | – | – | – | –
14 | 1 µg/mL (≈ 2.13 µM) | 1 µg/mL (≈ 2.13 µM) | Nc1cc(COC(=O)Nc2cccc(Cl)c2)cc(Nc2c3ccccc3nc3ccccc23)c1 [Example 14, [3-(acridin-9-yl)amino-5-amino]benzyl N-(3-chlorophenyl)carbamate] | – | – | – | – | – | –
15 | 3 µg/mL (≈ 6.07 µM) | 1.1 µg/mL (≈ 2.22 µM) | COc1cc(NC(=O)OCc2cc(N)cc(Nc3c4ccccc4nc4ccccc34)c2)cc(OC)c1 [Example 3, [3-(acridin-9-yl)amino-5-amino]benzyl N-(3,5-dimethoxyphenyl)carbamate] | – | – | – | – | – | –
16 | 3 µg/mL (≈ 6.46 µM) | – | COc1cccc(NC(=O)OCc2cc(N)cc(Nc3c4ccccc4nc4ccccc34)c2)c1 [Example 2, [3-(acridin-9-yl)amino-5-amino]benzyl N-(3-methoxyphenyl)carbamate] | 0.71 µ g/ml | 1.12 µ g/ml | 1.08 µ g/ml | 0.68 µ g/ml | 0.97 µ g/ml | –
17 | 3 µg/mL (≈ 5.88 µM) | 0.7 µg/mL (≈ 1.37 µM) | COc1cc(NC(=S)OCc2cc(N)cc(Nc3c4ccccc4nc4ccccc34)c2)cc(OC)c1 [Example 18, [3-(acridin-9-yl)amino-5-amino]benzyl N-(3,5-dimethoxyphenyl)thiocarbamate] | – | – | – | – | – | –
18 | 3 µg/mL (≈ 6.67 µM) | – | COc1cccc(NC(=O)OCc2cccc(Nc3c4ccccc4nc4ccccc34)c2)c1 [Example 20, 3-(acridin-9-yl)aminobenzyl N-(3-methoxyphenyl)carbamate] | – | – | – | – | – | –
19 | 3 µg/mL (≈ 6.49 µM) | 0.1 µg/mL (≈ 0.216 µM) | N[C@@H](Cc1ccccc1)C(=O)Nc1cc(CO)cc(Nc2c3ccccc3nc3ccccc23)c1 [Example 46, N-[3-(acridin-9-yl)amino-5-(hydroxymethyl)phenyl] (2S)-2-amino-3-phenylpropaneamide] | – | – | – | – | – | –

From patent EP1380574B1, “9-aminoacridine derivates and process for the preparation thereof” (Samjin Pharmaceutical Co., Ltd., priority 1998, dated 2000)
